Read-outs that look alike come from different tables or passages of the source.
Legend:
[1] = Determination of the solubility in cosmetic solvents; settings: saturated solution stirred 7 days at room temperature, HPLC; for solubility Finsolv TN: C12-15 Alkylbenzoate; for solubility Myritol 318: Capric/Caprylic Triglyceride
Description: (§1) 1.5 g of a cosmetic solvent (Capric/Caprylic Triglyceride (Mygliol 318) and C12-15 Alkylbenzoate (Finsolv TN)) is saturated with the respective Benzotriazol-derivative by adding 0.2 g portions while stirring at room temperature. The saturated solution is stirred for 7 days at room temperature. 1 ml of the supernatant is centrifuged and filtered in order to obtain a clear solution. The concentration of the Benzotriazol-derivative is determined by means of HPLC.

[2] = 7 days
Description: as §1

Row | SMILES | solubility Finsolv TN [1] [%] | solubility Myritol 318 [1] [%] | solubility Finsolv TN [2] [%] | solubility Myritol 318 [2] [%]
1 | Cc1cc(COCCC(C)C)c(O)c(-n2nc3ccccc3n2)c1 [Example 6, 2-(2H-Benzotriazol-2-yl)-6-(3-methyl-butoxymethyl)-4-methyl-phenol] | 37 | 36 |  | 
2 | CCCCC(CC)COCc1cc(C)cc(-n2nc3ccccc3n2)c1O (stereo not drawn) [Example 2, 2-(2H-Benzotriazol-2-yl)-6-(2-ethylhexyloxymethyl)-4-methyl-phenol] |  |  | 64 | 66
3 | CCCCC(CC)COCc1cc(C)cc(-n2nc3ccc(Cl)cc3n2)c1O (stereo not drawn) [Example 12, 2-(5-Chloro-benzotriazol-2-yl)-6-(2-ethylhexyloxymethyl)-4-methyl-phenol] | 19 | 12 |  | 

Now from value to compound, other results behind:

Row | solubility Finsolv TN [1] [%] | solubility Myritol 318 [1] [%] | SMILES | solubility Finsolv TN [2] [%] | solubility Myritol 318 [2] [%]
4 | 42 | 24 | CCCCC(CC)C(=O)OCc1cc(C)cc(-n2nc3ccccc3n2)c1O (stereo not drawn) [Example 8, 2-Ethyl-hexanoic acid 3-(2H-benzotriazol-2-yl)-2-hydroxy-5-methyl-benzyl ester] |  | 
5 | 0.02 | 0.01 | Cc1cc(CO)c(O)c(-n2nc3ccccc3n2)c1 [Example 14, 2-(2H-Benzotriazol-2-yl)-6-hydroxymethyl-4-methyl-phenol] |  | 
6 | 8 | 6 | Cc1cc(COC(=O)CC(C)C)c(O)c(-n2nc3ccccc3n2)c1 [Example 9, 3-Methyl-butyric acid 3-(2H-benzotriazol-2-yl)-2-hydroxy-5-methyl-benzyl ester] |  | 

Source: patent publication US8883829B2, “2-phenyl-1,2,3-benzotriazoles for UV radiation absorbance” (DSM IP Assets B.V., priority 2010, dated 2014)
